Holding throughout (assay): growth of human tumour cells (NCI), 48 h
Assay [1] has as its system MDA-MB-231.
Assay [2] has as its system KM12.
Assay [3] deals with SK-MEL-2.
For assay [4], the system named is HT-29.
Assay [5] concerns SNB-19.
Assay [6] concerns A498.
Assay [7] concerns LOX IMVI.
The subject of assay [8] is SW-620.
Assay [9] relates to SF-295.
Assay [10] concerns RPMI-8226.
Assay [11] concerns HCT-15.
The test system of assay [12] is MOLT-4.
For assay [13], the system named is Malme-3M.
In assay [14] the test system is OVCAR-3.
Assay [15] relates to SN12C.
The subject of assay [16] is TK-10.
Assay [17] deals with SNB-75.
In assay [18] the test system is OVCAR-8.
In assay [19] the test system is UACC-62.
Assay [20] relates to SK-MEL-28.

Structures are written as SMILES.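 Five compound concentrations were applied to cells in 96-well plates for 48 hours; endpoints were derived by simple linear interpolation of the resulting dose-response curve. GI50 is the concentration that inhibits growth by half.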 The source made the active and inactive calls. Rule as the data show it: active = GI50 up to about 1.1 µM and inactive = higher. Some results are limits rather than exact numbers.

As to `N#Cc1c(C#N)c(-c2ccccc2)n(Cc2ccccc2)c1N`, the GI50 in assay [1] was 26.9 µM (inactive); in assay [2], > 100 µM (inactive); in [3], > 100 µM (inactive); in [4], > 100 µM (inactive); in assay [5], 29.6 µM (inactive); in assay [6], > 100 µM (inactive). Also, the GI50 in assay [7] is > 100 µM (inactive); in assay [8], > 100 µM (inactive); in [9] it was > 100 µM (inactive); in [10], > 100 µM (inactive); in assay [11] it was greater than 100 µM; in assay [12], > 100 µM (inactive). Further, the GI50 in assay [13] was > 100 µM (inactive); in assay [14], > 100 µM (inactive); in assay [15], > 100 µM (inactive); in assay [16], > 100 µM (inactive); in [17], 14.4 µM (inactive); in assay [18] it was 28.4 µM (inactive). Moreover, the GI50 in assay [19] was > 100 µM (inactive).
As for `COC(=O)C[C@H](COCc1ccccc1)NC(=O)C[C@H](COCc1ccccc1)NC(=O)C[C@H](COCc1ccccc1)NC(=O)OC(C)(C)C`, the GI50 in assay [1] is 81.8 µM (inactive); in [20], 73.1 µM (inactive); in [2], > 100 µM (inactive); in assay [3], > 100 µM (inactive); in assay [4] it was 72.8 µM (inactive); in assay [5], > 100 µM (inactive). For the same molecule, the GI50 in [6] was 24 µM (inactive); in assay [7], 58.7 µM (inactive); in assay [8], > 100 µM (inactive); in assay [9] it was 88.9 µM (inactive); in assay [10], > 100 µM (inactive); in assay [11] it was greater than 100 µM. Also, the GI50 in assay [12] was > 100 µM (inactive); in assay [13], > 100 µM (inactive); in [14] it was > 100 µM (inactive); in assay [15], 41.4 µM (inactive); in [17] it was 13.1 µM (inactive); in assay [18], 23.8 µM (inactive). Besides, the GI50 in [19] was > 100 µM (inactive).
With `CC(=O)OC1CC[C@@]2(C)C(=CC[C@@H]3[C@@H]2CC[C@]2(C)C(OC(C)=O)[C@H](n4ccnc4)C[C@@H]32)C1` (stereo partly specified), the GI50 is 37.2 µM (inactive) in assay [1]; 17.7 µM (inactive) in assay [20]; 16.7 µM (inactive) in assay [2]; 16.8 µM (inactive) in assay [3]; 10.7 µM (inactive) in [4]; 62.8 µM (inactive) in assay [5]. Further, the GI50 in [6] was 90.4 µM (inactive); in assay [7], 18.7 µM (inactive); in [8], 33.6 µM (inactive); in assay [9], 31.7 µM (inactive); in [10], 17.3 µM (inactive); in assay [11] it was 15.5 µM. Further, the GI50 in assay [12] was 12.9 µM (inactive); in assay [13] it was 14.6 µM (inactive); in [15], 56 µM (inactive); in assay [16], > 100 µM (inactive); in assay [17] it was 54.7 µM (inactive); in [18] it was 17.1 µM (inactive). Moreover, in [19], the GI50 was 16.1 µM (inactive).
As for `CSc1c(C#N)c(O)n(-c2ccc(C)cc2)c(=O)c1C#N`, the GI50 in assay [1], in [20], in [2], in assay [3], in assay [4] and in [5] was > 100 µM (inactive) each time. For the same molecule, the GI50 in assay [6] is > 100 µM (inactive); in [7] it was > 100 µM (inactive); in assay [8], > 100 µM (inactive); in [10], > 100 µM (inactive); in assay [11], greater than 100 µM; in assay [12], > 100 µM (inactive). Further, the GI50 in [13], in assay [14], in [15], in [16], in assay [17] and in assay [18] was > 100 µM (inactive) throughout. Also, the GI50 in assay [19] is > 100 µM (inactive).
As for `Nc1nc(Cl)cc(NC2(CO)CCC2)n1`, the GI50 in assay [1], in [20], in assay [2], in [3], in assay [4] and in assay [6] was > 100 µM (inactive) each time. Also, the GI50 in assay [7] is > 100 µM (inactive); in assay [8], > 100 µM (inactive); in [9], > 100 µM (inactive); in assay [10], > 100 µM (inactive); in [11], greater than 100 µM; in assay [12], > 100 µM (inactive). In addition, the GI50 in assay [13], in assay [14], in [15], in assay [16], in assay [17] and in assay [18] was > 100 µM (inactive) each time. For the same molecule, the GI50 in assay [19] was > 100 µM (inactive).
For `O=C(CNC(=O)OCc1ccccc1)NCCCCC(NC(=O)OCc1ccccc1)C(=O)NC(CCCCNC(=O)CNC(=O)OCc1ccccc1)C(=O)OCc1ccccc1` (stereo unspecified), the GI50 in [1], in assay [20], in [3], in assay [4], in [5] and in assay [6] was > 62.5 µM (inactive) in each case. Also, the GI50 in [7] is > 62.5 µM (inactive); in assay [8], > 62.5 µM (inactive); in [10], > 62.5 µM (inactive); in assay [11] it was greater than 62.5 µM; in [12], > 62.5 µM (inactive); in assay [13], > 62.5 µM (inactive). For the same molecule, the GI50 in [14], in [15], in assay [16], in assay [17], in assay [18] and in assay [19] was > 62.5 µM (inactive) in each case.
In the case of `Cc1cccc(N(CCC#N)S(=O)(=O)c2ccccc2)c1`, the GI50 in [1], in assay [20], in assay [2], in assay [3], in [4] and in [5] was > 100 µM (inactive) each time. The GI50 in assay [6] is > 100 µM (inactive); in assay [7], > 100 µM (inactive); in assay [8] it was > 100 µM (inactive); in assay [10], > 100 µM (inactive); in assay [11], greater than 10 µM; in [12], > 100 µM (inactive). For the same molecule, the GI50 in assay [13], in assay [14], in assay [15], in [16], in assay [17] and in assay [18] was > 100 µM (inactive) each time. The GI50 in assay [19] was > 100 µM (inactive).
As to `CN(C)CCCNC(=O)c1c(O)c2ccccc2n(C)c1=O`, the GI50 in [1] was 86.5 µM (inactive); in [20] it was 74.6 µM (inactive); in assay [2], > 100 µM (inactive); in [3] it was 64.1 µM (inactive); in [4] it was 55.6 µM (inactive); in assay [6] it was > 100 µM (inactive). Moreover, the GI50 in assay [7] was 30.6 µM (inactive); in assay [8] it was 54 µM (inactive); in [9] it was 48.5 µM (inactive); in assay [10] it was 73.8 µM (inactive); in [11], 51.1 µM; in assay [12] it was 44.5 µM (inactive). The GI50 in assay [13] was 72.4 µM (inactive); in assay [14], > 100 µM (inactive); in assay [15], 67.1 µM (inactive); in assay [16] it was 67.3 µM (inactive); in [17] it was 63.7 µM (inactive); in assay [18] it was 49.4 µM (inactive). Further, in [19], the GI50 is 64.9 µM (inactive).
